Measurements from ChEMBL document CHEMBL1649078, “Novel antiviral C5-substituted pyrimidine acyclic nucleoside phosphonates selected as human thymidylate kinase substrates” (J Med Chem, 2011).
The source made the active and inactive calls.

Key:
[1] = Cytotoxicity against human HEL cells after 3 days; assay type: cell-based
Human alphaherpesvirus 2 = assay: Antiviral activity against HSV2 G infected in human HEL cells assessed as reduction of virus-induced cytopathogenicity after 7 days; assay type: functional, organism-based; conditions: Human alphaherpesvirus 2, strain G, 168 h
Human alphaherpesvirus 3 [2] = assay: Antiviral activity against thymidine kinase-deficient VZV 07/1 infected in human HEL cells assessed as reduction of virus-induced cytopathogenicity after 5 days; assay type: functional, organism-based; conditions: Human alphaherpesvirus 3, 07/1, HEL, 120 h
Human alphaherpesvirus 3 [3] = assay: Antiviral activity against VZV OKA expressing thymidine kinase infected in human HEL cells assessed as reduction of virus-induced cytopathogenicity after 5 days; assay type: functional, organism-based; conditions: Human alphaherpesvirus 3, OKA, 120 h
Human betaherpesvirus 5 = assay: Antiviral activity against HCMV AD169/Davis infected in human HEL cells assessed as reduction of virus-induced cytopathogenicity after 7 days; assay type: functional, organism-based; conditions: Human betaherpesvirus 5, AD169/Davis, 168 h
Homo sapiens [4] = species: Homo sapiens; assay: Displacement of MABA-CDP from human recombinant UCK by fluorescence competition assay
Homo sapiens [5] = species: Homo sapiens; assay: Activity at human recombinant UCK by Michaelis-Menten equation analysis
Homo sapiens [6] = species: Homo sapiens; assay: Displacement of Mant-ATP from human recombinant UCK by fluorescence competition assay
Homo sapiens [7] = species: Homo sapiens; assay: Binding affinity to human recombinant UCK by circular dichroism analysis
Human alphaherpesvirus 1 [8] = assay: Antiviral activity against HSV1 KOS infected in human HEL cells assessed as reduction of virus-induced cytopathogenicity after 7 days; assay type: functional, organism-based; conditions: Human alphaherpesvirus 1, KOS, 168 h
Human alphaherpesvirus 1 [9] = assay: Antiviral activity against acyclovir-resistant thymidine kinase deficient HSV1 KOS infected in human HEL cells assessed as reduction of virus-induced cytopathogenicity after 7 days; assay type: functional, organism-based; conditions: Human alphaherpesvirus 1, KOS, 168 h
[10] = Inhibition of human recombinant UCK by Double reciprocal plot analysis

Structure (SMILES)	Activity (Homo sapiens [4])	Activity (Homo sapiens [5])	also measured
O=c1[nH]c(=O)n([C@H]2C[C@H](O)[C@@H](CO)O2)cc1/C=C/Br [BRIVUDINE]	–	–	CC50 at 72 h [1]: > 250 µM; MCC at 72 h [1]: > 250 µM; EC50 (Human alphaherpesvirus 2): 30 µM; EC50 (Human alphaherpesvirus 3 [2]): > 100 µM; EC50 (Human alphaherpesvirus 3 [3]): 0.012 µM; EC50 (Human betaherpesvirus 5): > 250 µM
CCOP(=O)(/C=C/Cn1ccc(=O)[nH]c1=O)OCC	inactive	inactive	–
COP(=O)(C/C=C\Cn1ccc(=O)n(C(=O)c2ccccc2)c1=O)OC	inactive	inactive	–
C[C@H](Cn1cnc2c(N)ncnc21)OCP(=O)(O)O	–	–	Activity (Homo sapiens [6]): inactive
Nc1ccn(C[C@@H](CO)OCP(=O)(O)O)c(=O)n1 [CIDOFOVIR]	–	–	CC50 at 72 h [1]: 280 µM; MCC at 72 h [1]: > 250 µM; Activity (Homo sapiens [7]): inactive; EC50 (Human alphaherpesvirus 2): 2 µM; EC50 (Human alphaherpesvirus 1 [8]): 3.5 µM; Activity (Homo sapiens [6]): inactive; EC50 (Human alphaherpesvirus 1 [9]): 2.5 µM; EC50 (Human alphaherpesvirus 3 [2]): 0.07 µM; EC50 (Human alphaherpesvirus 3 [3]): 0.044 µM; EC50 (Human betaherpesvirus 5): 1.2 µM
COP(=O)(C/C=C/Cn1cc(Br)c(=O)[nH]c1=O)OC	inactive	inactive	–
Cc1cn(C/C=C/CP(=O)(OCOC(=O)C(C)(C)C)OCOC(=O)C(C)(C)C)c(=O)[nH]c1=O	inactive	inactive	CC50 at 72 h [1]: 35 µM; MCC at 72 h [1]: ≥ 200 µM; EC50 (Human alphaherpesvirus 2): 6.1 µM; EC50 (Human alphaherpesvirus 1 [8]): 3.1 µM; EC50 (Human alphaherpesvirus 1 [9]): 9.2 µM; EC50 (Human alphaherpesvirus 3 [2]): 0.19 µM; EC50 (Human alphaherpesvirus 3 [3]): 0.41 µM; EC50 (Human betaherpesvirus 5): > 40 µM
CCOP(=O)(CC/C=C/Cn1cc(Br)c(=O)[nH]c1=O)OCC	inactive	inactive	–
COP(=O)(C/C=C/Cn1cc(F)c(=O)[nH]c1=O)OC	inactive	inactive	–
O=c1[nH]c(=O)n(C/C=C/CP(=O)(O)O)cc1Br	inactive	inactive	–
O=c1ccn(C/C=C/CP(=O)(O)O)c(=O)[nH]1	inactive	inactive	–
CCOP(=O)(CC/C=C/Cn1cc(Cl)c(=O)n(C(=O)c2ccccc2)c1=O)OCC	inactive	inactive	–
COP(=O)(C/C=C/Cn1cc(Br)c(=O)n(C(=O)c2ccccc2)c1=O)OC	inactive	inactive	–
COP(=O)(C/C=C\Cn1cc(C)c(=O)n(C(=O)c2ccccc2)c1=O)OC	inactive	inactive	–
Nc1ccn([C@H]2C[C@H](O)[C@@H](COP(=O)(O)O)O2)c(=O)n1	–	–	Activity (Homo sapiens [7]): inactive
CCOP(=O)(CC/C=C/Cn1cc(Cl)c(=O)[nH]c1=O)OCC	inactive	inactive	–
COP(=O)(C/C=C\Cn1cc(Cl)c(=O)n(C(=O)c2ccccc2)c1=O)OC	inactive	inactive	–
O=c1ccn(C/C=C/CCP(=O)(O)O)c(=O)[nH]1	inactive	inactive	–
COP(=O)(C/C=C/Cn1ccc(=O)[nH]c1=O)OC	inactive	inactive	–
Cc1cn(C/C=C/CP(=O)(O)O)c(=O)[nH]c1=O	inactive	inactive	Ki [10]: 1200 µM

Structure (SMILES)	Activity (Homo sapiens [4])	Activity (Homo sapiens [5])	also measured
Cc1cn(C/C=C\CP(=O)(OCOC(=O)C(C)(C)C)OCOC(=O)C(C)(C)C)c(=O)[nH]c1=O	inactive	inactive	CC50 at 72 h [1]: 35 µM; MCC at 72 h [1]: ≥ 200 µM; EC50 (Human alphaherpesvirus 2): > 40 µM; EC50 (Human alphaherpesvirus 1 [8]): > 40 µM; EC50 (Human alphaherpesvirus 1 [9]): > 40 µM; EC50 (Human alphaherpesvirus 3 [2]): > 40 µM; EC50 (Human alphaherpesvirus 3 [3]): > 40 µM; EC50 (Human betaherpesvirus 5): > 200 µM
O=c1[nH]c(=O)n(C/C=C/CCP(=O)(O)O)cc1Br	inactive	inactive	–
COP(=O)(C/C=C\Cn1cc(C)c(=O)[nH]c1=O)OC	inactive	inactive	–
COP(=O)(C/C=C\Cn1cc(Br)c(=O)[nH]c1=O)OC	inactive	inactive	–
Nc1nc2c(ncn2COC(CO)CO)c(=O)[nH]1 [GANCICLOVIR]	–	–	CC50 at 72 h [1]: 164 µM; MCC at 72 h [1]: > 100 µM; EC50 (Human alphaherpesvirus 2): 0.05 µM; EC50 (Human alphaherpesvirus 1 [8]): 0.08 µM; EC50 (Human alphaherpesvirus 1 [9]): 3 µM; EC50 (Human betaherpesvirus 5): 5.2 µM
COP(=O)(C/C=C/Cn1cc(Cl)c(=O)[nH]c1=O)OC	inactive	inactive	–
O=c1[nH]c(=O)n(C/C=C/CCP(=O)(O)O)cc1F	inactive	inactive	–
CCOP(=O)(/C=C/Cn1cc(F)c(=O)[nH]c1=O)OCC	inactive	inactive	–
COP(=O)(C/C=C\Cn1cc(Br)c(=O)n(C(=O)c2ccccc2)c1=O)OC	inactive	inactive	–
Cc1cn(C/C=C/P(=O)(O)O)c(=O)[nH]c1=O	inactive	inactive	–
COP(=O)(C/C=C/Cn1cc(C)c(=O)[nH]c1=O)OC	inactive	inactive	–
O=c1[nH]c(=O)n(C/C=C/P(=O)(O)O)cc1Cl	inactive	inactive	–
CCOP(=O)(CC/C=C/Cn1cc(Br)c(=O)n(C(=O)c2ccccc2)c1=O)OCC	inactive	inactive	–
CCOP(=O)(/C=C/Cn1cc(C)c(=O)[nH]c1=O)OCC	inactive	inactive	–
CCOP(=O)(CC/C=C/Cn1cc(F)c(=O)n(C(=O)c2ccccc2)c1=O)OCC	inactive	inactive	–
O=c1[nH]c(=O)n(C/C=C/CP(=O)(O)O)cc1F	inactive	inactive	–
CCOP(=O)(/C=C/Cn1cc(Cl)c(=O)[nH]c1=O)OCC	inactive	inactive	–
O=c1ccn(C/C=C/P(=O)(O)O)c(=O)[nH]1	inactive	inactive	–
CC(C)(C)C(=O)OCOP(=O)(C/C=C\Cn1cc(Br)c(=O)[nH]c1=O)OCOC(=O)C(C)(C)C	inactive	inactive	CC50 at 72 h [1]: 70 µM; MCC at 72 h [1]: > 200 µM; EC50 (Human alphaherpesvirus 2): 45 µM; EC50 (Human alphaherpesvirus 1 [8]): > 200 µM; EC50 (Human alphaherpesvirus 1 [9]): > 200 µM; EC50 (Human alphaherpesvirus 3 [2]): 110 µM; EC50 (Human alphaherpesvirus 3 [3]): 97 µM; EC50 (Human betaherpesvirus 5): > 200 µM
CCOP(=O)(CC/C=C/Cn1cc(C)c(=O)[nH]c1=O)OCC	inactive	inactive	–

Structure (SMILES)	Activity (Homo sapiens [4])	Activity (Homo sapiens [5])	also measured
O=c1[nH]c(=O)n(C/C=C/CCP(=O)(O)O)cc1Cl	inactive	inactive	–
O=c1[nH]c(=O)n(C/C=C/P(=O)(O)O)cc1F	inactive	inactive	–
CCOP(=O)(CC/C=C/Cn1ccc(=O)[nH]c1=O)OCC	inactive	inactive	–
O=c1[nH]c(=O)n(C/C=C/P(=O)(O)O)cc1Br	inactive	inactive	–
COP(=O)(C/C=C\Cn1cc(Cl)c(=O)[nH]c1=O)OC	inactive	inactive	–
CCOP(=O)(CC/C=C/Cn1ccc(=O)n(C(=O)c2ccccc2)c1=O)OCC	inactive	inactive	–
CCOP(=O)(CC/C=C/Cn1cc(F)c(=O)[nH]c1=O)OCC	inactive	inactive	–
CC(C)(C)C(=O)OCOP(=O)(C/C=C/Cn1cc(Br)c(=O)[nH]c1=O)OCOC(=O)C(C)(C)C	inactive	inactive	CC50 at 72 h [1]: 34 µM; MCC at 72 h [1]: 200 µM; EC50 (Human alphaherpesvirus 2): 16 µM; EC50 (Human alphaherpesvirus 1 [8]): 20 µM; EC50 (Human alphaherpesvirus 1 [9]): 19 µM; EC50 (Human alphaherpesvirus 3 [2]): 15 µM; EC50 (Human alphaherpesvirus 3 [3]): 20 µM; EC50 (Human betaherpesvirus 5): > 40 µM
COP(=O)(C/C=C\Cn1cc(F)c(=O)[nH]c1=O)OC	inactive	inactive	–
COP(=O)(C/C=C/Cn1ccc(=O)n(C(=O)c2ccccc2)c1=O)OC	inactive	inactive	–
COP(=O)(C/C=C\Cn1cc(F)c(=O)n(C(=O)c2ccccc2)c1=O)OC	inactive	inactive	–
COP(=O)(C/C=C/Cn1cc(Cl)c(=O)n(C(=O)c2ccccc2)c1=O)OC	inactive	inactive	–
CCOP(=O)(/C=C/Cn1cc(Br)c(=O)[nH]c1=O)OCC	inactive	inactive	–
COP(=O)(C/C=C/Cn1cc(F)c(=O)n(C(=O)c2ccccc2)c1=O)OC	inactive	inactive	–
Cc1cn(C/C=C/CCP(=O)(O)O)c(=O)[nH]c1=O	inactive	inactive	–
COP(=O)(C/C=C/Cn1cc(C)c(=O)n(C(=O)c2ccccc2)c1=O)OC	inactive	inactive	–
COP(=O)(C/C=C\Cn1ccc(=O)[nH]c1=O)OC	inactive	inactive	–
Nc1ncnc2c1ncn2CCOCP(=O)(O)O	–	–	Activity (Homo sapiens [6]): inactive
CCOP(=O)(CC/C=C/Cn1cc(C)c(=O)n(C(=O)c2ccccc2)c1=O)OCC	inactive	inactive	–
